Assay results: ChEMBL document CHEMBL1687782, “High-resolution crystal structure of the subclass B3 metallo-beta-lactamase BJP-1: rational basis for substrate specificity and interaction with sulfonamides” (Antimicrob Agents Chemother, 2010)

Columns and labels:
[1] = tested on: Stenotrophomonas maltophilia; assay: Activity at Stenotrophomonas maltophilia 1SML metallo-beta-lactamase L1
Bradyrhizobium japonicum [2] = assay: Activity at Bradyrhizobium japonicum metallo-beta-lactamase BJP-1
[3] = tested on: Stenotrophomonas maltophilia; assay: Ratio of Kcat to Km for Stenotrophomonas maltophilia 1SML metallo-beta-lactamase L1
Fluoribacter gormanii [4] = assay: Activity at Fluoribacter gormanii 1K07 metallo-beta-lactamase FEZ-1
Fluoribacter gormanii [5] = assay: Ratio of Kcat to Km for Fluoribacter gormanii 1K07 metallo-beta-lactamase FEZ-1
Bradyrhizobium japonicum [6] = assay: Ratio of Kcat to Km for Bradyrhizobium japonicum metallo-beta-lactamase BJP-1

SMILES | Km [1] [µM] | Km (Bradyrhizobium japonicum [2]) [µM] | kcat/Km [3] | Km (Fluoribacter gormanii [4]) [µM] | kcat/Km (Fluoribacter gormanii [5]) | kcat/Km (Bradyrhizobium japonicum [6]) [×10⁴ /M/s]
C[C@@H](O)[C@H]1C(=O)N2C(C(=O)O)=C(SCCNC=N)C[C@H]12 | 90 | 260 | 7.3 ×10⁵ /M/s | > 1000 | 2 ×10⁵ /M/s | 6
CCN1CCN(C(=O)N[C@@H](C(=O)N[C@@H]2C(=O)N3[C@@H]2SC(C)(C)[C@@H]3C(=O)O)c2ccccc2)C(=O)C1=O | 20 | 700 | 7 ×10⁶ /M/s | 4200 | 1.2 ×10⁴ /M/s | 6.7
CC1(C)S[C@@H]2[C@H](NC(=O)[C@H](C(=O)O)c3ccsc3)C(=O)N2[C@H]1C(=O)O | 140 | – | 2.7 ×10⁶ /M/s | > 5000 | 1.3 ×10⁴ /M/s | –
CC1(C)S[C@@H]2[C@H](NC(=O)[C@H](N)c3ccccc3)C(=O)N2[C@H]1C(=O)O | 40 | 670 | 4.4 ×10⁶ /M/s | > 5000 | 1.1 ×10⁴ /M/s | 1.9
